For one assay, the system named is AMPK β1 WT. As to the kind of experiment: pACC HTRF assay in AMPKβ1/β2 double knockout U-2 OS cells stably expressing β1 WT. Format: cell-based, human. The procedure: (§1) The β1 WT or β1 S108A mutant were stably expressed in AMPKβ1β2 double knockout cells and were treated with varying concentrations of compound 1 for 30 mins at 37 C in the presence or absence of 11 μM of compound 2. Phosphorylation of ACC was assessed using the HTRF Cisbio (pACC kit).
(§2) AMPKβ1/β2 double knockout U-2 OS Flp-In™ T-Rex™ cell lines were generated by Horizon Discovery (Cambridge, UK). Cells were genotyped and analysed by Western blotting to confirm that there was a complete knockout of AMPKβ1/β2. We took these AMPKβ1/β2 double knockout cells, and re-introduced the expression of human β1 wild-type (WT) or a β1 Serine 108 to alanine mutation (S108A). This was achieved using the Flp-In™ system (Invitrogen) present in this cell line and stable cells expressing β1 WT or a β1 S108A mutant were generated according to the manufacturers' protocols. Re-expression of the β1 subunit was confirmed by Western blot analysis.
(§3) Cells stably expressing β1 WT or a β1 S108A mutant were treated with varying concentrations of Compound 1 in the presence or absence of a fixed concentration (11 μM) of compound 2. Cells lysates were subjected to the pACC HTRF (Cisbio) assay to determine the level of phosphorylation of the AMPK substrate, ACC, in cell lysates, as in example 1.
Background: In TR-FRET formats the signal depends on donor and acceptor labels being close together.

In the next assay the test system is AMPK. The experiment in a line: pACC HTRF (Cisbio) assay, phosphorylation of ACC in U-2 OS Flp-In T-REx cells. The class given is cell-based. The conditions noted are these: for phosphorylation of the AMPK substrate ACC (ratio 665/620 nm): varying concentrations, 30 mins at 37 C. How it is done:
U-2 OS cells were treated with varying concentrations of compound 1 for 30 mins at 37 C. Phosphorylation of ACC was assessed using the HTRF Cisbio (pACC kit).
U-2 OS cells were treated with varying concentrations of compound 1 for 30 mins at 37 C in the presence or absence of 11 μM of compound 2. Phosphorylation of ACC was assessed using the HTRF Cisbio (pACC kit).
First, we monitored the activation of AMPK within cells using the indirect activator, compound 1. U-2 OS Flp-In T-REx cells were seeded at 50 K in a 96-well plate and left overnight at 37 C in DMEM GlutaMAX (Thermo Fisher Scientific) supplemented with 10% (vol/vol) FBS and 100 U/ml penicillin G, and 100 μg/ml streptomycin. Cells were treated for 30 mins with varying concentrations of Compound 1 in media lacking FBS and then cells were lysed in 50 μl of Cisbio lysis buffer #1 supplemented with blocking solution as per the manufacturer's protocol (Cisbio). Cells were lysed for 30 mins at room temperature before 16 μl of lysate was incubated with 4 μl of the HTRF antibodies (1:40 dilution of the acceptor and donor (p)ACC antibodies, as per the manufacturers protocol). Lysates were incubated overnight with the antibodies before the 665 nm/620 nm ratio was determined using a MolecularDevices i3 plate reader (with a HTRF cartridge add-on).
To investigate whether treatment of compound 1 with our new identified direct benzocoumarin AMPK activator, compound 2, could improve the activation of AMPK, cells were treated for 30 mins with varying concentrations of compound 1 in the presence or absence of 11 μM compound 2. Cells were cultured and analysed according to example 1.

In assay [1] the test system is ADaM-binding site AMPK mutant (β1 S108A). The experiment in a line: pACC HTRF assay in AMPKβ1/β2 double knockout U-2 OS cells stably expressing β1 S108A mutant. The class given is cell-based, human. The conditions noted are these: fixed 11 μM compound 2 with varying concentrations of compound 1. How it is done: as §1, §2, §3
Assay [2] has as its system AMPK complexes containing the β2 isoform subunit. As to the kind of experiment: pACC HTRF assay in AMPKβ1/β2 double knockout U-2 OS cells stably expressing β2 WT isoform. The class given is cell-based, human. The conditions noted are these: fixed 11 μM compound 2 with varying concentrations of compound 1. The procedure:
U-2 OS cells AMPKβ1β2 double knockout cells stably expressing AMPK β2 were treated with varying concentrations of compound 1 for 30 mins at 37 C in the presence or absence of 11 μM of compound 2. Phosphorylation of ACC was assessed using the HTRF Cisbio (pACC kit).
We took AMPKβ1/β2 double knockout cells, and re-introduced the expression of the human β2 WT isoform. […] Cells stably expressing β2 WT were treated with varying concentrations of Compound 1 in the absence or presence of a fixed concentration (11 μM) of compound 2. Cell lysates were subjected to the pACC HTRF (Cisbio) assay to determine the level of phosphorylation of the AMPK substrate, ACC, in cell lysates, as in Example 1. […] Direct activation AMPK by binding to the ADaM site was impaired or abolished in β2-containing complexes in vitro and in cells. The inability of compound 2 to improve the activation of AMPK by compound 1, was consistent with the knowledge we have generated showing the compound 2 binds to the ADaM-site of AMPK. […] Low doses of compound 1 in combination with compound 2 could activate AMPK.

Two molecules from patent publication US20230035592A1, “DIRECT AMPK ACTIVATOR COMPOUNDS COMBINED WITH INDIRECT AMPK ACTIVATOR COMPOUNDS, COMPOSITIONS, METHODS AND USES THEREOF” (SOCIETE DES PRODUITS NESTLE S.A., priority 2019, published 2023) can be followed below.

Turning to `O=c1oc2cc(O)ccc2c2ccccc12` [Compound 1, 3-hydroxy-6H-benzo[c]chromen-6-one], the “pACC (fold increase in activation)” value with AMPK β1 WT (cells stably expressing β1 WT, varying concentrations, 30 mins at 37 C) is reported as “able to dose-dependently increase pACC”. The “phosphorylation of the AMPK substrate ACC (ratio 665/620 nm)” value in the assay with AMPK was “increased the phosphorylation of the AMPK substrate, ACC, in a dose-dependent manner”; with AMPK (listed as compound 1), “increases the phosphorylation of the AMPK substrate, ACC, in a dose-dependent manner”.

In the case of `COc1cc(O)c2c(c1)c(=O)oc1cc(O)ccc12` [Compound 2, 3,10-Dihydroxy-8-methoxy-6H-benzo[c]chromen-6-one], the “effect on the dose-response curve of compound 1 (pACC)” value in assay [1] is “not able to cause a left-shift and improvement”; in assay [2], “did not improve the dose-response curve”; in the assay with AMPK β1 WT (β1 WT cells, fixed 11 μM compound 2 with varying concentrations of compound 1) it was “capable of causing a left-shift and improvement”; in the assay with AMPK (fixed 11 μM compound 2 with varying concentrations of compound 1, 30 mins) it was “left-shift in the dose-response curve”.
